Results published in PMC8269394, “Characterization of an Atypical Trypanosoma brucei Hsp70 Demonstrates Its Cytosolic-Nuclear Localization and Modulation by Quercetin and Methylene Blue” (International Journal of Molecular Sciences, 2021).

Tests used:
Assay in all cases: ATPase assay, colorimetric phosphate release
Type in all cases: biochemical
[1] = biological target: T1, TcHsp70B (Trypanosoma cruzi, UniProt P05456); details: 600 µM ATP; 37 °C; no Tbj2
T1 construct: gene HSP70

[2] = biological target: T2, TbHsp70.c (Trypanosoma brucei, UniProt Q383E9); details: 600 µM ATP; 37 °C; no Tbj2
T2 construct: gene Tb11.01.3080
T2 sequence (Q383E9 1-676): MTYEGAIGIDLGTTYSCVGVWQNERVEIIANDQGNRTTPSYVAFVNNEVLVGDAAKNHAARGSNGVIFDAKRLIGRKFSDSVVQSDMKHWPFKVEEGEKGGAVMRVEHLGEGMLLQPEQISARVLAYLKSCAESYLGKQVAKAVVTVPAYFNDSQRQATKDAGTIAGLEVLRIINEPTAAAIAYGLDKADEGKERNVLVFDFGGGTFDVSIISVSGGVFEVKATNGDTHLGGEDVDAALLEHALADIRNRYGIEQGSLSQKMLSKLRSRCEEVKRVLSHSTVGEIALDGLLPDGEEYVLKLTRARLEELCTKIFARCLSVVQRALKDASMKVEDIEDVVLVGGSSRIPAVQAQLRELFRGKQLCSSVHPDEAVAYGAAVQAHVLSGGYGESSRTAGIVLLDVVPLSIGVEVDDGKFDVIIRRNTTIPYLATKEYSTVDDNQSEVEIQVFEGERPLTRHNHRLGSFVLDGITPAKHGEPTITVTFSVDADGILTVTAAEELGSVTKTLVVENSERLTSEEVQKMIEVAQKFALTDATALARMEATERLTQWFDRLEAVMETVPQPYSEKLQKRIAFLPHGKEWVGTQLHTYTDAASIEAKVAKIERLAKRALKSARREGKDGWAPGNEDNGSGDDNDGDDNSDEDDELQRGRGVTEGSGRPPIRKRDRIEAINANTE

[3] = biological target: T3, TbHsp70.c-Tbj2 (Trypanosoma brucei, UniProt Q383E9); details: 30 µM methylene blue; 1 µM each protein; 600 µM ATP; 37 °C; activator
T3 construct: gene Tb11.01.3080; recombinant purified TbHsp70.c with recombinant co-chaperone Tbj2 at equal concentration; with Chaperone protein DnaJ, putative (type I J-protein Tbj2)
T3 sequence (Q383E9 1-676): as above
T3 sequence (Q585V4 1-404 partner): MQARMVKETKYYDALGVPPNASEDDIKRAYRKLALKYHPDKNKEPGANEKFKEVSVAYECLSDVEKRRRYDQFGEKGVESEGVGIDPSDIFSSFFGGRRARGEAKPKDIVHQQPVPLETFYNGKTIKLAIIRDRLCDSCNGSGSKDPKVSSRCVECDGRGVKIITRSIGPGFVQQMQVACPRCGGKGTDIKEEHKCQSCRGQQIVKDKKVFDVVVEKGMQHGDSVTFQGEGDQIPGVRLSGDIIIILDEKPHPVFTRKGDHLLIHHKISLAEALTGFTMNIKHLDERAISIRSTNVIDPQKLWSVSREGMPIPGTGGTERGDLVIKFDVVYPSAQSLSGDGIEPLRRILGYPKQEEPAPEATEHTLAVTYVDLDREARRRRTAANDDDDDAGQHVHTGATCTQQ
Source text: ATPase assay, colorimetric phosphate release on TbHsp70.c-Tbj2 | in the presence of Tbj2, methylene blue enhanced the ATPase activity of TbHsp70.c

[4] = biological target: T1, TcHsp70B; details: 30 µM quercetin; 0.4 µM protein; 600 µM ATP; 37 °C; no Tbj2
[5] = biological target: T2, TbHsp70.c; details: 30 µM quercetin; 0.4 µM protein; 600 µM ATP; 37 °C; no Tbj2
[6] = biological target: T4, TcHsp70B-Tbj2 (Trypanosoma cruzi, UniProt P05456); details: 30 µM quercetin; 0.4 µM each protein; 600 µM ATP; 37 °C
T4 construct: gene HSP70; mixed species: recombinant T. cruzi TcHsp70B with recombinant T. brucei co-chaperone Tbj2; with Chaperone protein DnaJ, putative (type I J-protein Tbj2, Trypanosoma brucei)
T4 sequence (P05456 whole entry): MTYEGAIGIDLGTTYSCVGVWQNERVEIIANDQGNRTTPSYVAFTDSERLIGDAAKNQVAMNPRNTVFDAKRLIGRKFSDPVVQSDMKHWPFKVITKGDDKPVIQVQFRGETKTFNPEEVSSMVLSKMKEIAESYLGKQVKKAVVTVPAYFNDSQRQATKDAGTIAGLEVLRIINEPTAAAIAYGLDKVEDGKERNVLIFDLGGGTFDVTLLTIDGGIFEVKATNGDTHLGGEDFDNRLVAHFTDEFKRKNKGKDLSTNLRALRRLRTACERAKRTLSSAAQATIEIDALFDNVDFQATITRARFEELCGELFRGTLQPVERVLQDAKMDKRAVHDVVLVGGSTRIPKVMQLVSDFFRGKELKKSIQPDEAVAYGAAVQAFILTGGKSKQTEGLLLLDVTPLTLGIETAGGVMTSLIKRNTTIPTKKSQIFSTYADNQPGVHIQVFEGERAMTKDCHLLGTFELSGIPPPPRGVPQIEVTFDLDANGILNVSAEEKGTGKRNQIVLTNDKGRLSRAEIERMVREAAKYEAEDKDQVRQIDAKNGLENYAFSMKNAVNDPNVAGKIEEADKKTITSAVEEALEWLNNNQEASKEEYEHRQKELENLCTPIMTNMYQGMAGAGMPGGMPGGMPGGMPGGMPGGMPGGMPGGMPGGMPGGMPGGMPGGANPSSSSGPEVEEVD
T4 sequence (Q585V4 1-404 partner): as the sequence (Q585V4 1-404 partner) above

[7] = biological target: T3, TbHsp70.c-Tbj2; details: 30 µM quercetin; 0.4 µM each protein; 600 µM ATP; 37 °C

T1 sequence (P05456 whole entry): as the sequence (P05456 whole entry) above

## Nc1ncnc2c1ncn2[C@@H]1O[C@H](COP(=O)(O)OP(=O)(O)OP(=O)(O)O)[C@@H](O)[C@H]1O [ATP]
[1]
  ATPase assay, colorimetric phosphate release: Inorganic phosphate released by ATP in the presence of each Hsp70 was monitored
[2]
  ATPase assay, colorimetric phosphate release: Inorganic phosphate released by ATP in the presence of each Hsp70 was monitored

## CN(C)c1ccc2nc3ccc(=[N+](C)C)cc-3sc2c1 [methylene blue]
[3]
  fold increase in Tbj2-stimulated ATPase at 30 μM: 1.5 fold

## O=c1c(O)c(-c2ccc(O)c(O)c2)oc2cc(O)cc(O)c12 [quercetin, 3,3′,4′,5,7-Pentahydroxyflavone]
[4]
  fold inhibition of basal ATPase at 30 μM: 1.3 fold
[5]
  basal ATPase inhibition at 30 μM: Our findings suggest that quercetin inhibits the basal ATPase activity of TbHsp70.c
[6]
  fold inhibition of Tbj2-stimulated ATPase at 30 μM: 1.4 fold
[7]
  fold inhibition of Tbj2-stimulated ATPase at 30 μM: 9.3 fold
